Experimental data as given in patent US20160220567A1, “COMPOSITION FOR TREATING OR PREVENTING BONE DISEASES, COMPRISING HALOFUGINONE AS ACTIVE INGREDIENT” (THE CATHOLIC UNIVERSITY OF KOREA INDUSTRY-ACADEMIC …, priority 2013, published 2016).

Key:
IL-17 and IL-6 = assay: Inflammatory cytokines IL-17 and IL-6 in joint tissue staining / sera ELISA of CIA mice; type: in vivo, mouse; settings: FIG. 1C
Protocol: (§1) For the construction of a mouse model with collagen-induced arthritis (hereinafter, referred to as “CIA”), a 6-week old male DBA/1J mouse was subjected to primary immunization by intradermal injection after mixing the bovine type II collagen (hereinafter, referred to as “CII”) and complete Freud's adjuvant (CFA) in an amount of 100 μL, respectively. After a week thereafter, halofuginone was injected intraperitoneally at 3 day intervals at a concentration of 100 μg/kg and 500 μg/kg, respectively (9 weeks).

[1] = tested on: CD4 T cells isolated from human peripheral blood; assay: Expression of IL-17 and Foxp3 by flow cytometer in human T cells; type: cell-based; settings: condition of differentiating Th17 cells, flow cytometry, FIG. 6A
Protocol: The CD4 T cells isolated from human peripheral blood were treated with halofuginone under the condition of differentiating Th17 cells (anti-CD3 (0.5 μg/mL), anti-CD28 (0.5 μg/mL), anti-IFN-γ (10 μg/mL), anti-IL-4 (10 μg/mL), IL-6 (20 ng/mL), and IL-1β (10 ng/mL)) and cultured. Then, the cells were collected, washed with the FACs buffer for flow cytometry analysis, subjected to blocking at 4° C. for the inhibition of non-specific binding for 15 minutes, added with CD4 and CD25 (i.e., cell surface markers) along with anti-CD4-PerCP and anti-CD25-APC and reacted at 4° C. for 30 minutes, and washed with a perm wash buffer. After performing the Cytofix/cytoperm process at 4° C. for 20 minutes, the resultant was washed with the perm wash buffer. Anti Foxp3-FITC and anti IL-17 PE were added thereto, reacted at 4° C. for 30 minutes, and washed with the perm wash buffer. Upon completion of staining, the cells were analyzed using the fluorescentactivated cell sorter (FACs) regarding the expression levels of IL-17 cytokines and Foxp3 according to the halofuginone treatment.

Th17 cells = assay: mRNA expression of IL-17, CCR6, SOCS3 and Foxp3 in Th17 cells by real-time PCR; type: cell-based, mouse; settings: FIG. 3B
Protocol: The real-time PCR was performed using the LightCycler 2.0 System Instrument and the reaction compounds were prepared by mixing 1 μL of each cDNA, 10 μL of premix Ex Taq as an enzyme for the initiation, and each primer pair to a final volume of 20 μL using distilled water. The reaction conditions were: reacted at 95° C. for 10 minutes, followed by a total of 50 cycles consisting of denaturation at 95° C. for 10 seconds, annealing at 60° C. for 5 seconds, and extension at 72° C. for 10 seconds. The values of cycle threshold (Ct) were analyzed and the amount of mRNA expression for each target was indicated in terms of the amount of beta-actin mRNA expression and the relative quantity. The primers used are shown below.
Splenocytes were obtained from mice, that is, the spleens removed from the mice and the spleen tissues were thinly ground using a tearing slide and the red blood cells (RBC) in the splenocytes were removed with the RBC lysis solution. Then, PBS buffer solution was added thereto, and the mixture was centrifuged, and washed to obtain splenocytes. Then, the singe cells (1 ? 10^6) isolated from the spleens were aliquoted into a 24-well plate coated with anti-CD3 antibody (1 μg/mL) were treated under the condition of capable of stimulating Th17 cells (anti-CD28 antibody (1 μg/mL), TGF-β (2 ng/ mL), IL-6 (20 ng/mL), anti-IL-4 (10 μg/mL), and anti-IFN-γ (10 μg/mL); the condition of capable of stimulating Th1 cells (anti-CD28 antibody (1 μg/mL), IL-12 (10 ng/mL), and anti-IL-4 (10 μg/mL)); or the condition of capable of stimulating Th2 cells (anti-CD28 antibody (1 μg/mL), IL-4 (10 ng/mL), and anti-IFN-γ (10 μg/mL)); and the cells were cultured for 3 days, and in particular, cultured after treating the cells with halofuginone at respective concentration and cultured. Specifically, DMSO treatment was used for the control group.
The expression of IL-17, CCR6, SOCS3, and Foxp3 in the cells under the condition of Example <2-2> was analyzed by real-time PCR as described in Example <1-6>. The primers used are shown below.

ERK of Th17 cells = assay: pERK expression in Th17 cells by western blotting; type: cell-based, mouse; settings: Th17 cells stimulated with halofuginone, FIG. 3C
Protocol: To examine whether halofuginone activates the ERK of Th17 cells, western blotting was performed for pERK in the cells under the condition of Example <2-1>. To this end, the Th17 cells were lysed in a lysis buffer [20 mM Tris-HCl (pH 7.5), 150 mM NaCl, 1% Triton X-100, 1 mM EDTA, 1 mM EGTA, 1 mM phenylmethylsulfonyl fluoride, 10 mM β-glycerophosphate, 1 mM NaF, 1 mM Na3VO4, and 19 Protease Inhibitow Cocktail™ (Roche Molecular Biochemicals, Indianapolis, Ind., USA)]. From the lysate, an equal amount of the protein (about 20 μg) was separated by sodium dodecyl sulfate-polyacrylamide gel electrophoresis and then transferred to a nitrocellulose membrane. Then, the blots were probed with NFATc1 and phospho-Smad2/3 (all from Santa Cruz Biotechnology), Stat3, Stat5, ERK, phospho-Stat3, phospho-stat5, and phospho-ERK (all from Cell Signaling Technology), and β-actin (Sigma) antibodies, and confirmed by ECL (Amersham, Del., USA).

IL-17 and Foxp3 genes = assay: Expression of IL-17 and Foxp3 genes in splenocytes and draining lymph nodes by RT-PCR; type: in vivo, mouse; settings: mRNA, splenocytes and draining lymph nodes of CIA mice, FIG. 2C
Protocol: as §1
To examine the effect of halofuginone treatment in an animal model, the RNA in the splenocytes and draining lymph nodes were extracted using the Trizol reagent, and the expression of IL-17and Foxp3 genes was confirmed by RT-PCR.
The real-time PCR was performed using the LightCycler 2.0 System Instrument and the reaction compounds were prepared by mixing 1 μL of each cDNA, 10 μL of premix Ex Taq as an enzyme for the initiation, and each primer pair to a final volume of 20 μL using distilled water. […] The values of cycle threshold (Ct) were analyzed and the amount of mRNA expression for each target was indicated in terms of the amount of beta-actin mRNA expression and the relative quantity. […]

**Q.** For `O=C(C[C@H]1NCCC[C@@H]1O)Cn1cnc2cc(Br)c(Cl)cc2c1=O` (racemic) [halofuginone], which “level of inflammatory cytokine IL-6” value (IL-17 and IL-6) is on record?
**A.** significantly decrease

**Q.** What about the “level of inflammatory cytokine IL-17” value (IL-17 and IL-6) of the same compound?
**A.** significantly decrease

**Q.** And the “number of Th17 cells” value [1]?
**A.** reduces

**Q.** What about the “number of Treg cells” value [1] of the same compound?
**A.** increasing

**Q.** And the “expression of CCR6” value (Th17 cells)?
**A.** inhibits

**Q.** And the “expression of Foxp3” value (Th17 cells)?
**A.** increasing

**Q.** What about the “expression of IL-17” value (Th17 cells) of the same compound?
**A.** inhibits

**Q.** What about the “expression of SOCS” value (Th17 cells) of the same compound?
**A.** increasing

**Q.** What about the “expression of pERK” value (ERK of Th17 cells) of the same compound?
**A.** increased

**Q.** What about the “expression of Foxp3” value (IL-17 and Foxp3 genes) of the same compound?
**A.** increased

**Q.** What about the “expression of IL-17” value (IL-17 and Foxp3 genes) of the same compound?
**A.** decreased
